We go through three compounds from BindingDB's records for PubMed 33309162 (Universita Degli Studi di Palermo, 2021).

Each structure is given as a SMILES string.

This test has as its target PI3K catalytic subunit alpha (PIK3CA), rat. Put plainly: Inhibition of PI3Kalpha in rat Rat1 cells reduction in phosphorylation of AKT at Ser473 residue incubated for 2 hrs by alpha screen assay.
`Cn1nccc1-n1c([C@@H]2CSCN2c2ncnc(N)c2C#N)nc2cccc(Cl)c2c1=O` yielded an IC50 of over 10 µM.

For `N#Cc1c(N)ncnc1N1CSC[C@H]1c1nc2cccc(Cl)c2c(=O)n1-c1cccs1`, the concentration for half-maximal inhibition (IC50) is over 10 µM.

`CN1CCN(C)/C(=N/c2ccc([N+](=O)[O-])cc2C(=O)Nc2ccccc2)C1` had an IC50 of over 10 µM.
